Experimental data reported in patent US20220403032A1, “THERAPY FOR DIABETES USING STEM CELL MIGRATION AGENT” (Biozipcode, Inc., priority 2019, published 2022).

Tested on: diabetic patients (type 1 and type 2 diabetes mellitus)
Test: Research Plan 2: therapy of diabetes mellitus targeting a bone marrow-derived abnormal hematopoietic stem cell
Format: in vivo, human
Settings: type 1 and type 2 diabetic patients; twelve weeks of therapy; predicted result

Substance: insulin [insulin alone]
- Effect of eliminating an abnormal hematopoietic stem cell: not eliminated
- Effect of healing diabetes mellitus: not observed
- Therapeutic effect on a complication: observed to some extent, but the complication does not heal
